Among the test systems are MDA-N; 786-0; HOP-92; KM12; PC-3; SK-MEL-2; M14; UACC-62; EKVX; NCI-H460; TK-10; HT-29; RPMI-8226; ACHN; DU-145; BT-549; K562; SF-295; NCI-H522; NCI-H226.
Common to all, as to test: DTP human tumour cell line panel, 48 h

Each structure is given as a SMILES string.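 Tested at 5 concentrations; 48 h exposure; 96-well plates; endpoints linearly interpolated, else capped at highest concentration. GI50 = concentration required for 50% inhibition of growth.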 The source made the active and inactive calls. Cut-off read from the data, not from the text of the source: active = GI50 up to about 1.1 µM and inactive = higher.

For orientation: GI50 means the concentration at which growth is held to half of that of the control. Regarding `O=C(O)c1ccc2c(c1)CC1(C2)Cc2ccccc2C1=O` (stereo not given), the GI50 is > 100 µM (inactive) in the experiment with MDA-N; > 100 µM (inactive) with 786-0; 25.2 µM (inactive) in the experiment with HOP-92; > 100 µM (inactive) in the experiment with KM12; > 100 µM (inactive) with PC-3; > 100 µM (inactive) with SK-MEL-2. In addition, the GI50 in the experiment on M14 is 51.8 µM (inactive); with UACC-62 it was > 100 µM (inactive); in the experiment with EKVX it was > 100 µM (inactive); in the experiment on NCI-H460, > 100 µM (inactive); in the experiment with TK-10, > 100 µM (inactive); in the experiment with HT-29, > 100 µM (inactive). Also, the GI50 in the experiment on RPMI-8226, in the experiment on ACHN, in the experiment with DU-145, with BT-549, in the experiment with K562 and in the experiment with SF-295 was > 100 µM (inactive) throughout. Also, the GI50 in the experiment with NCI-H522 and with NCI-H226 was > 100 µM (inactive) throughout.

With `O=C1c2cccnc2-c2nccc3c2c1nc1ccc(Br)cc13`, the concentration for 50% growth inhibition (GI50) in the experiment with MDA-N was 0.109 µM (active); with 786-0 it was 0.0248 µM (active); in the experiment with HOP-92, 0.102 µM (active); with KM12 it was 0.0656 µM (active); in the experiment on PC-3 it was 0.0426 µM (active); with SK-MEL-2, 0.0726 µM (active). The GI50 in the experiment on M14 was 0.0243 µM (active); in the experiment on UACC-62, 0.0569 µM (active); in the experiment with EKVX, 0.0948 µM (active); in the experiment on NCI-H460 it was 0.065 µM (active); in the experiment with TK-10, 0.273 µM (active); with HT-29, 0.282 µM (active). Besides, the GI50 was 0.0347 µM (active) with RPMI-8226; 0.0263 µM (active) in the experiment with ACHN; 0.0225 µM (active) in the experiment with DU-145; 0.0337 µM (active) in the experiment on BT-549; 0.0238 µM (active) in the experiment with K562; 0.0401 µM (active) with SF-295. The 50% growth inhibitory concentration (GI50) in the experiment with NCI-H522 is 0.0528 µM (active); in the experiment on NCI-H226 it was 0.0199 µM (active).

Regarding `CN(CCNC(=O)c1n[nH]c2c1ccc1ccccc12)CCNC(=O)c1n[nH]c2c1ccc1ccccc12`, the GI50 in the experiment on MDA-N was 1.86 µM (inactive); in the experiment with 786-0, 1.75 µM (inactive); in the experiment on HOP-92, 3.29 µM (inactive); in the experiment on KM12, 2.14 µM (inactive); in the experiment with PC-3, 2.49 µM (inactive); with SK-MEL-2 it was 8.2 µM (inactive). Further, the GI50 is 1.82 µM (inactive) in the experiment with M14; 1.92 µM (inactive) in the experiment with UACC-62; 1.63 µM (inactive) in the experiment on EKVX; 2.3 µM (inactive) in the experiment with NCI-H460; 2.25 µM (inactive) with TK-10; 2.01 µM (inactive) with HT-29. Besides, the GI50 in the experiment on RPMI-8226 was 2.18 µM (inactive); in the experiment on ACHN, 1.83 µM (inactive); in the experiment on DU-145, 2.49 µM (inactive); in the experiment with BT-549 it was 20.2 µM (inactive); in the experiment on K562, 2.26 µM (inactive); in the experiment on SF-295, 1.81 µM (inactive). Also, the GI50 was 1.95 µM (inactive) with NCI-H522 and 4.32 µM (inactive) in the experiment on NCI-H226.

`Cc1c([N+](=O)[O-])oc2ccc3ccccc3c12`: the GI50 was 26.9 µM (inactive) in the experiment with MDA-N; 18.1 µM (inactive) in the experiment with 786-0; > 100 µM (inactive) in the experiment on HOP-92; 29.9 µM (inactive) in the experiment with KM12; 86.9 µM (inactive) with PC-3; > 100 µM (inactive) with SK-MEL-2. For the same molecule, the GI50 was 21.5 µM (inactive) with M14; 56.1 µM (inactive) in the experiment with UACC-62; 23 µM (inactive) in the experiment with EKVX; 3.74 µM (inactive) in the experiment on NCI-H460; 37.8 µM (inactive) in the experiment on TK-10; 14.6 µM (inactive) with HT-29. The GI50 was 9.33 µM (inactive) in the experiment with RPMI-8226; 16.2 µM (inactive) with ACHN; 7.74 µM (inactive) with DU-145; > 100 µM (inactive) in the experiment with BT-549; 18.9 µM (inactive) in the experiment with K562; 58.1 µM (inactive) in the experiment on SF-295. For the same molecule, the GI50 was 3.86 µM (inactive) in the experiment with NCI-H522 and > 100 µM (inactive) with NCI-H226.

Values taken from ChEMBL document CHEMBL1201862, “PubChem BioAssay data set” (2004).
